In ChEMBL document CHEMBL5604063, “ASAP - DENV-2 NS2B-NS3 protease fluorescence dose response” (2024):
Several values for one entry are separate records, joined by “and”; a condition that tells them apart may be missing. Equal entries are not always repeated.

Experiments:
[1] = biological target: T1, Genome polyprotein (dengue virus type 2, UniProt P29990); assay type: functional, Thailand/16681/1984
[2] = biological target: T1, Genome polyprotein; assay type: functional, Thailand/16681/1984; remark: listed apart in the source

T1 sequence (P29990 1346-1475 limits assumed): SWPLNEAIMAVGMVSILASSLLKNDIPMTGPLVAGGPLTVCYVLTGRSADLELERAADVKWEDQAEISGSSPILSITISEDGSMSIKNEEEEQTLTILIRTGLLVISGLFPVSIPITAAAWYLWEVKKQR
T1 sequence (P29990 1476-2093 limits assumed): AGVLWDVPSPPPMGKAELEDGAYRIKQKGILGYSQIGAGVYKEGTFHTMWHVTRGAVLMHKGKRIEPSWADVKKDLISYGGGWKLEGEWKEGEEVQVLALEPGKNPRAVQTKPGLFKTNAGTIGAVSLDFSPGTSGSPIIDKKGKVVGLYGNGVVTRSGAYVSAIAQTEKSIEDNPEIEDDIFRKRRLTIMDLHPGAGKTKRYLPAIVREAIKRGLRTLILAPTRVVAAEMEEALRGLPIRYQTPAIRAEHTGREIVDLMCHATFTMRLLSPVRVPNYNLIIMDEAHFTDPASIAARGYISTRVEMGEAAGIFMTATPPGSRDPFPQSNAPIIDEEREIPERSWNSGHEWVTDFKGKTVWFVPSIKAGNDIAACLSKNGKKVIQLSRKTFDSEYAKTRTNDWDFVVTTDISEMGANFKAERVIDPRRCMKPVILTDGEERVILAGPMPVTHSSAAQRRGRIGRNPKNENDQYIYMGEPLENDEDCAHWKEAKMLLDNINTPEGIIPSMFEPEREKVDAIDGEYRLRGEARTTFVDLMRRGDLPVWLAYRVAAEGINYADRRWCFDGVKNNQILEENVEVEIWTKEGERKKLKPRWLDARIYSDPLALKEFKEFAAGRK

SMILES | IC50 [1] | IC50 [2]
O=C(Nc1ccc2c(c1)CNC2)c1cccc(-c2cnco2)c1 | 27.6 µM | 57.7 µM and 70.3 µM
COCCOc1ccc(Cl)cc1C(=O)Nc1ccc2c(c1)CNC2 | > 99.5 µM | > 100 µM
O=C(Nc1ccc2c(c1)CNC2)N1C[C@H](C2CC2)C[C@@H]1C1CC1 | > 99.5 µM | > 100 µM
O=C(NCc1ccc2c(c1)CCNC2)c1cc(Cl)cc2[nH]ncc12 | > 99.5 µM | > 100 µM
Cc1nc2cc(Cl)ccc2cc1C(=O)Nc1ccc2c(c1)CNC2 | > 99.5 µM | > 100 µM
C[C@H]1C[C@H](c2cccc(CN)c2)[C@@H](c2cc(Cl)cc(NC(=O)OCc3ccccc3)c2)C1 | 55.7 µM | 77.6 µM
Cn1ncc(C(=O)Nc2cc(CCCN)ccn2)c1O | > 99.5 µM | > 100 µM
O=C(Nc1ccc2c(c1)CNC2)C1(c2ccc(Cl)cc2)CCCC1 | > 99.5 µM | > 100 µM
O=C1Cc2c(cccc2C(=O)Nc2ccc3c(c2)C(=O)OC3)N1 | > 99.5 µM | > 100 µM
C[C@H]1Oc2c(cccc2C(=O)Nc2ccc3c(c2)CNC3)NC1=O | 89.3 µM | 90.4 µM
Cc1c(C(=O)Nc2cc3c(cn2)OCC3)cc(C2CC2)n1C | > 99.5 µM | > 100 µM
O=C(Nc1ccc2c(c1)CNC2)c1cc(Br)cc2[nH]c(C3CCOCC3)nc12 | > 99.5 µM | > 100 µM
CC(C)COc1ccc(Cl)cc1C(=O)Nc1ccc2c(c1)CNC2 | > 99.5 µM | > 100 µM
CC(C)(C)O[C@H]1CCCN(C(=O)Nc2ccc3c(c2)CNC3)C1 | > 99.5 µM | > 100 µM
Cc1ccc2cc(Cl)cc(C(=O)Nc3ccc4c(c3)CNC4)c2n1 | 85.7 µM | 53.2 µM and > 100 µM
N#C[C@H](Nc1ccc2c(c1)CNC2)c1ccnc(C(F)(F)F)c1 | > 99.5 µM | > 100 µM
C#Cc1ccnc(NC(=O)c2cc(C3CC3)n(C)c2C)c1 | > 99.5 µM | > 100 µM
O=C(Nc1ccc2c(c1)CNC2)N1CCC[C@](O)(c2ccccc2)C1 | > 99.5 µM | > 100 µM
O=C1CCN(c2cc(Cl)cc(C(=O)Nc3ccc4c(c3)CNC4)c2)C(=O)N1 | > 99.5 µM | > 100 µM
CCN(CC)C[C@H]1CCCN(C(=O)Nc2ccc3c(c2)CNC3)C1 | > 99.5 µM | > 100 µM
Cn1ncc2c(C(=O)Nc3ccc4c(c3)CNC4)cc(C3CC3)nc21 | > 99.5 µM | > 100 µM
CCCN1C(=O)[C@](Nc2ccc3c(c2)CNC3)(C(=O)NC)c2ccccc21 | > 99.5 µM | > 100 µM
O=C(Nc1ccc2c(c1)CNC2)c1cc(Cl)cc2ccncc12 | > 99.5 µM | > 100 µM
C[C@H]1CC2(CN1C(=O)Nc1ccc3c(c1)CNC3)CC(F)(F)C2 | > 99.5 µM | > 100 µM

SMILES | IC50 [1] | IC50 [2]
O=C(Nc1ccc2c(c1)CNC2)N1CC[C@H](CC(F)(F)F)C1 | > 99.5 µM | > 100 µM
O=C1Cc2c(cc(Br)cc2C(=O)Nc2ccc3c(c2)CNC3)N1 | > 99.5 µM | > 100 µM
Cc1c[nH]c2ncnc(C(=O)Nc3ccc4c(c3)CNC4)c12 | > 99.5 µM | > 100 µM
O=C(Nc1ccc2c(c1)CNC2)[C@H]1C[C@@H]1c1ccccc1 | > 99.5 µM | > 100 µM
Nc1noc2cccc(C(=O)Nc3ccc4c(c3)CNC4)c12 | > 99.5 µM | > 100 µM
Clc1cc([C@H](C#Cc2ccccc2)Nc2ccc3c(c2)CNC3)c2cn[nH]c2c1 | > 99.5 µM | 88.8 µM
Cc1nc2c(C(=O)Nc3ccc4c(c3)CNC4)cccc2[nH]1 | > 99.5 µM | > 100 µM
O=C(Nc1ccc2c(c1)CNC2)c1cc(Br)cc2[nH]c(=O)[nH]c12 | 67.1 µM | 54.4 µM
Cc1cc2c(C(=O)Nc3ccc4c(c3)CNC4)cccc2[nH]1 | > 99.5 µM | > 100 µM
O=C(NCCCn1ccnc1)[C@H](Nc1ccc2c(c1)CNC2)c1cc(Cl)cc(C2CC2)c1 | > 99.5 µM | > 100 µM
O=C1COc2c(cccc2C(=O)Nc2ccc3c(c2)CNC3)N1 | > 99.5 µM | > 100 µM
O=C(Nc1ccc2c(c1)CNC2)c1cccc2ccncc12 | > 99.5 µM | > 100 µM
Cc1nc2c(C(=O)Nc3ccc4c(c3)CNC4)cc(Cl)cc2[nH]1 | > 99.5 µM | 80.9 µM
N#C[C@H](Nc1ccc2c(c1)CNC2)c1cncc2ccccc12 | > 99.5 µM | > 100 µM
O=C(Nc1ccc2c(c1)CNC2)c1ccc2nc(O)sc2c1 | > 99.5 µM | > 100 µM
N#Cc1ccc(C(=O)Nc2ccc3c(c2)CNC3)cc1Cl | > 99.5 µM | > 100 µM
COC(=O)C(C)(C)NC(=O)[C@H](Nc1ccc2c(c1)CNC2)c1cc(Cl)cc(C2CC2)c1 | > 99.5 µM | > 100 µM
Cc1[nH]c2ccccc2c1[C@H]1CCN(C(=O)Nc2ccc3c(c2)CNC3)C1 | > 99.5 µM | > 100 µM
O=C1COc2cc(C(=O)Nc3ccc4c(c3)CNC4)ccc2N1 | > 99.5 µM | > 100 µM
O=C(Nc1ccc2c(c1)CNC2)c1ccc(-c2cncs2)cc1 | > 99.5 µM | > 100 µM
CCOC(=O)c1ncoc1CNC(=O)[C@H](Nc1ccc2c(c1)CNC2)c1cc(Cl)cc(C2CC2)c1 | > 99.5 µM | > 100 µM
O=C(NC1CCOCC1)[C@H](Nc1ccc2c(c1)CNC2)c1cc(Cl)cc2[nH]ncc12 | > 99.5 µM | > 100 µM
O=C(Nc1ccc2c(c1)CNC2)c1cccc2sccc12 | > 99.5 µM | > 100 µM
O=C(Nc1ccc2c(c1)CNC2)c1cncc2[nH]ncc12 | > 99.5 µM | > 100 µM

SMILES | IC50 [1] | IC50 [2]
O=C(Nc1ccc2c(c1)CNC2)c1cc(F)c2[nH]ccc2c1 | > 99.5 µM | > 100 µM
O=C(Nc1ccc2c(c1)CNC2)c1ccnc2[nH]ccc12 | > 99.5 µM | > 100 µM
Cc1cccc(-c2nc3c(C(=O)Nc4ccc5c(c4)CNC5)cc(Cl)cc3[nH]2)c1O | 7.23 µM and 5.37 µM and 4.3 µM | 18.7 µM
O=C(Nc1ccc2c(c1)CNC2)c1cccc2[nH]c(=O)[nH]c12 | > 99.5 µM | 65.3 µM
O=C(Nc1ccc2c(c1)CNC2)c1ncnc2[nH]ccc12 | > 99.5 µM | > 100 µM
NCc1cc(Cl)cc(C(=O)Nc2ccc3c(c2)C(=O)OC3)c1 | > 99.5 µM | > 100 µM
O=C(Nc1ccc2c(c1)CNC2)c1cc(Cl)cc2[nH]c(-c3ncnn3C3CC3)nc12 | > 99.5 µM | > 100 µM
O=C(Nc1ccc2c(c1)CNC2)c1c(Cl)ccc2c1OCO2 | > 99.5 µM | > 100 µM
CC(C)CNC(=O)[C@H](Nc1ccc2c(c1)CNC2)c1cc(Cl)cc2[nH]ncc12 | > 99.5 µM | > 100 µM
CC(=O)Nc1cccc(C(=O)Nc2ccc3c(c2)CNC3)n1 | > 99.5 µM | > 100 µM
CC(C)(C)NC(=O)[C@H](Nc1ccc2c(c1)CNC2)c1cc(Cl)cc(C2CC2)c1 | > 99.5 µM | > 100 µM
CCc1cnccc1-c1nc2c(C(=O)Nc3ccc4c(c3)CNC4)cc(Cl)cc2[nH]1 | > 99.5 µM | > 100 µM
CCOCCNC(=O)[C@H](Nc1ccc2c(c1)CNC2)c1cc(Cl)cc2[nH]ncc12 | > 99.5 µM | > 100 µM
O=C(Nc1ccc2c(c1)CNC2)N1CCC[C@H](Cc2nccs2)C1 | > 99.5 µM | > 100 µM
CCCNC(=O)[C@H](Nc1ccc2c(c1)CNC2)c1cc(Cl)cc2[nH]ncc12 | > 99.5 µM | > 100 µM
CC1(C)C(=O)Nc2ccc(C(=O)Nc3ccc4c(c3)CNC4)cc21 | > 99.5 µM | > 100 µM
O=C(Nc1ccc2c(c1)CNC2)c1ccc2ncsc2c1 | > 99.5 µM | > 100 µM
O=C1Cc2c(cccc2C(=O)Nc2ccc3c(c2)CNCCC3)N1 | > 99.5 µM | 90.1 µM
CNC(=O)[C@H](Nc1ccc2c(c1)C(=O)OC2)c1cc(Cl)cc2[nH]ncc12 | > 99.5 µM | > 100 µM
O=C(Nc1ccc2c(c1)CNC2)c1cccc2[nH]cnc12 | > 99.5 µM | > 100 µM
O=C(Nc1ccc2c(c1)CNC2)c1ccc2[nH]ccc2c1 | > 99.5 µM | > 100 µM
C[C@H](C1CC1)n1ncc2c(C(=O)Nc3ccc4c(c3)CNC4)cc(C3CC3)nc21 | > 99.5 µM | > 100 µM
Cn1cc2c(C(=O)Nc3ccc4c(c3)CNC4)cccc2n1 | > 99.5 µM | > 100 µM
